Results taken from article PMC7614387 (Chemical communications (Cambridge, England), 2021).

Molecular target: T1, LptH (Pseudomonas aeruginosa, UniProt Q9HVV7)
T1 sequence (Q9HVV7 25-175): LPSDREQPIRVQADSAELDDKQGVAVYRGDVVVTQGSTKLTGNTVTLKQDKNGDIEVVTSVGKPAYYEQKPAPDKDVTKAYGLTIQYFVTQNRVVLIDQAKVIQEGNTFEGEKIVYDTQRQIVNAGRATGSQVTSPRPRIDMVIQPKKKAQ
Experiment: native mass spectrometry
Assay type: biochemical, P. aeruginosa
Conditions: for Emax (in words): comparison within 2a derivatives

| Structure (SMILES) | Emax (in words) (nMS) | further results |
| --- | --- | --- |
| Clc1cc2c(c3ncccc13)OCN(CCc1ccccc1)C2 [1a] |  | Emax (pH 8, read-out: Emax, maximum achievable monomer mole fraction): 73 ± 2% |
| O=C(O)c1ccc(O)c2ncccc12 [2a, 5-carboxy-8-hydroxyquinoline] |  | increase in the monomer mole fraction (in words) (100 μM compound, nMS): minimal increase |
| COC(=O)CCCNC(=O)c1ccc(O)c2ncccc12 [2c] | highest Emax values of the series |  |
| COCOc1ccc(C(=O)NCCCC(=O)OC)c2cccnc12 [2e] | highest Emax values of the series |  |
